Active and inactive are the calls of the source. The rule behind the calls is not given here.
Key:
[1] = Cytotoxicity against HEK293 cells after 72 hrs by MTT assay; type: cell-based; settings: human
[2] = target: T1, D-alanyl-D-alanine dipeptidase (Enterococcus faecium, UniProt Q06241); experiment: Inhibition of Enterococcus faecium VanX expressed in Escherichia coli BL21 (DE3) cells using D-alanyl-alpha-R-phenylthioglycine as substrate by colorimetric assay
T1 sequence (Q06241 whole entry): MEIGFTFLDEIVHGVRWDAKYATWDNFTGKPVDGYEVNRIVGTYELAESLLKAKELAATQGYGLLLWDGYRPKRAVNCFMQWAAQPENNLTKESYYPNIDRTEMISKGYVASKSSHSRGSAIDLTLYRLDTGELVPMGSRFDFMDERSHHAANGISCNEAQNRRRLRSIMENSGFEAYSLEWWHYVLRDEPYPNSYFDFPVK

[3] = tested on: Enterococcus faecium; experiment: Increase in vancomycin sensitivity in vancomycin-resistant Enterococcus faecium E12-2 assessed as reduction in vancomycin MIC at 212 ug/ml by checkerboard analysis; type: functional, organism-based
[4] = tested on: Enterococcus faecium; experiment: Antibacterial activity against vancomycin-resistant Enterococcus faecium E12-2 assessed as growth inhibition by checkerboard analysis; type: functional, organism-based
[5] = tested on: Enterococcus faecium; experiment: Increase in vancomycin sensitivity in vancomycin-resistant Enterococcus faecium E12-2 assessed as reduction in vancomycin MIC at 72 ug/ml by checkerboard analysis; type: functional, organism-based

Compound | CC50 at 72 h [1] [µM] | Ki [2] [µM] | Activity [3] | inhibition [4] | Activity [5]
C[C@@H](NC(=O)c1cccc(=S)n1O)C(=O)O | 76 | 6.84 | Active | inactive | 
CC1(C)S[C@@H]2[C@H](NC(=O)[C@H](N)c3ccc(O)cc3)C(=O)N2[C@H]1C(=O)O [AMOXICILLIN] | 24 |  |  |  | 
C[C@H](CP(=O)(O)[C@@H](C)N)C(=O)O |  | 1.5 |  |  | 
O=C(N[C@@H](C(=O)O)c1ccccc1)c1cccc(=S)n1O | 64 | 2.74 |  | inactive | Active
CN[C@H](CC(C)C)C(=O)N[C@H]1C(=O)N[C@@H](CC(N)=O)C(=O)N[C@H]2C(=O)N[C@H]3C(=O)N[C@H](C(=O)N[C@H](C(=O)O)c4cc(O)cc(O)c4-c4cc3ccc4O)[C@H](O)c3ccc(c(Cl)c3)Oc3cc2cc(c3O[C@@H]2O[C@H](CO)[C@@H](O)[C@H](O)[C@H]2O[C@H]2C[C@](C)(N)[C@H](O)[C@H](C)O2)Oc2ccc(cc2Cl)[C@H]1O [VANCOMYCIN] | > 100 |  |  |  | 
C[C@@H](N)P(=O)(O)C[C@H](C(=O)O)c1ccccc1 |  | 2.9 |  |  | 
CC(C)[C@H](CP(=O)(O)[C@@H](C)N)C(=O)O |  | 6.1 |  |  | 

Source: ChEMBL document CHEMBL3259752, “Cell permeable vanX inhibitors as vancomycin re-sensitizing agents” (Bioorg Med Chem Lett, 2014)
